{"source": "patent US12509530B2", "about": "“Single domain antibodies directed against intracellular antigens” (Singh Molecular Medicine, LLC, priority 2015, dated 2025)", "molecules": {"B1": {"name": "anti-TNF-α VHH69: anti-TNF-α sdAb, SEQ ID NO:46 (TNF_69, SEQ ID NO: 64) (protein)", "VHH": "EVQLVESGGGSVLAGGSLRLSCVASGFTSRYNYMAWFRQAPGKEREGVATIGTASGSADYYGSVKDRFTISQDNAKNTVYLQMNSLKPEDTAMYYCAARTYGTISLTPSDYRYWGQGTLVTVSS", "modifications": "Camelid"}, "B2": {"name": "anti-STAT3 VHH14: anti-STAT3 single domain antibody, SEQ ID NO:4 (same sequence as STAT3_14, SEQ ID NO: 8) (protein)", "VHH": "QVQLVESGGGSVQAGGSLRLSCVASTYTGCMGWFRQAPGKEREGVAALSSRGFAGHYTDSVKGRFSISRDYVKNAVYLQMNTVKPEDAAMYYCAAREGWECGETWLDRTAGGHTYWGQGTLVTVSS", "modifications": "Camelid"}, "B3": {"name": "anti-TNF-α VHH62: anti-TNF-α sdAb, SEQ ID NO:47 (TNF_62, SEQ ID NO: 66) (protein)", "VHH": "QVQLVESGGGPVQAGETLRLSCTASGFTFAEADMGWYRQAPGHECELVSTITTEGITSEASSYYADSVRGRFTISRDNAKNMVYLQMNSLKPEDTAVYYCAPDPYAYSTYSDYCSWAQGTQGTLVTVSS", "modifications": "Camelid"}}, "key": {"[1]": {"biological_target": "T1, Human recombinant TNF-α (Homo sapiens, UniProt P01375)", "T1 construct": "purchased Sigma-Aldrich", "T1 sequence (P01375 77-233 limits assumed)": "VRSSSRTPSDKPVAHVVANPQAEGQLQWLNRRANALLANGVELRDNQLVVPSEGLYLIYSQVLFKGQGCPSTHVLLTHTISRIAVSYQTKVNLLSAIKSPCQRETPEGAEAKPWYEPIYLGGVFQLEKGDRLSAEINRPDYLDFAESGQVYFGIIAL", "test": "Inhibition of TNF-α cytotoxicity in L929 cells (MTS/PMS)", "format": "cell-based, mouse"}, "[2]": {"test_system": "SJSA-1 xenograft", "test": "SJSA-1 bone osteosarcoma subcutaneous xenograft model", "conditions": "SBT-100 5.0 mg/kg BIDx14, Doxorubicin 7.0 mg/kg days 1, 8, 14, IP"}, "[3]": {"test_system": "SJSA-1 xenograft", "conditions": "mouse, in vivo"}, "[4]": {"test_system": "STAT3", "test": "STAT3 reporter GloResponse SIE-luc2P/HEK293 assay, IL-6 induction", "format": "cell-based, human", "conditions": "24 and 48 hours treatment"}, "[5]": {"test_system": "MDA-MB-231 cells", "test": "MTT proliferation assay, MDA-MB-231", "format": "cell-based, human", "conditions": "test article cloudy; cells lost normal morphology"}, "[6]": {"test_system": "PANC-1 cells", "test": "MTT proliferation assay, PANC-1", "conditions": "Homo sapiens, PANC-1, 72 h"}, "[7]": {"biological_target": "T2, active human TNF-α full length protein (Homo sapiens, UniProt P01375)", "T2 construct": "active human TNF-α full length protein; purchased Abcam", "T2 sequence (P01375 77-233 limits assumed)": "as above", "test": "TNF-α binding ELISA", "conditions": "for detection in coated vs non-coated wells: 0.5 μg/mL coating antigen; for detection / binding to the TNF-α protein: Experiment 1", "method": "In this Example, the binding of anti-TNF-α sdAbs to active human TNF-α full length protein was assessed using an enzyme linked immunosorbent assay (ELISA) format. Additionally, the feasibility of utilizing a secondary antibody targeted to the his tag portion of the sdAbs was assessed.\nThe test articles for this study were anti-TNF-α VHH62 (SEQ ID NO:47) sdAb, TNF-α VHH66 (SEQ ID NO:45) sdAb, and anti-TNF-α VHH69 (SEQ ID NO:46) sdAb (Experiment 1).\nFor the assays to assess the binding of the sdAbs to TNF-α protein (Experiment 1, 4 and 5), a standard sandwich ELISA format was utilized. […] Plates were incubated overnight at 2-8° C. After the incubation, plates were washed (3×) and blocked (3% Bovine Serum Albumin (BSA) in Phosphate Buffered Saline (PBS)) for at least one hour at room temperature.\nAfter removal of the blocking buffer and washing (3×), samples were added to the appropriate wells of the ELISA plates and incubated at room temperature with shaking (150 rpm) for at least one hour. The secondary antibody (rabbit anti-llama biotinylated antibody at either a1:5,000 or 10,000 dilution) was then added to each well and incubated with shaking for at least one hour at room temperature.\nAfter the incubation with secondary antibody, the plates were again washed (3×) and horseradish peroxidase (HRP) at either a 1:25,000 or 1:50,000 dilution was added to each well. Plates were incubated with shaking for at least one hour at room temperature. A final wash (3×) was performed followed by the addition of TMB (Tetramethylbenzidine) substrate. After a 20 to 25 minute incubation at room temperature, stop solution was added to halt the colorimetric reaction. The absorbance at 450 nm was measured on a VersaMax instrument utilizing SoftMax Pro GxP version 5.4 software from Molecular Devices (Sunnyvale, CA).\nThe final experiment performed was to confirm that the results from the ELISA testing were due to binding to the TNF-α protein and not non-specific binding of the sdAb. For this determination, a comparison was made between wells coated with 0.5 μg/mL of coating antigen and non-coated wells. […] This experiment confirms that the detection seen with the previous experiments was due to the specific binding of the VHH to the coating antigen and not due to non-specific binding."}}, "note": "Values joined by “and” are separate entries in the source; they are usually repeats but may differ in a detail not shown here. Identical values can stand only once. Numbered stars: 1 amine (or outer) side, 2 acyl side, 3 side chain; on linkers, the order of the positions; unused ones are H or OH. Bridge positions count the residues as written; N and C are the ends. Square brackets hold non-standard residues; d marks the D form. Peptide text beside a SMILES is read from it. I, II: the chains in the order shown. Actinocin(9to1) = Cc1c2oc3c(C)ccc(C(=O)[*:1])c3nc-2c(C(=O)[*:2])c(N)c1=O; NMeV = CN[C@H](C(=O)O)C(C)C; Sar = CNCC(=O)O"}
{"molecule": "Cc1c2oc3c(C)ccc(C(=O)N[C@@H]4C(=O)N[C@H](C(C)C)C(=O)N5CCC[C@H]5C(=O)N(C)CC(=O)N(C)[C@@H](C(C)C)C(=O)O[C@@H]4C)c3nc-2c(C(=O)N[C@@H]2C(=O)N[C@H](C(C)C)C(=O)N3CCC[C@H]3C(=O)N(C)CC(=O)N(C)[C@@H](C(C)C)C(=O)O[C@@H]2C)c(N)c1=O", "note": "[Actinomycin D] (I: T[dV]P[Sar][NMeV] / II: T[dV]P[Sar][NMeV]; ester I:1-I:C, II:1-II:C; linker I:N-II:N via Actinocin(9to1))", "values": [{"measurement": "% Toxicity, Sample Replicate #", "setting": "[1]; Assay 1 control, Actinomycin D only (no TNFα)", "result": "5.4% and 2.3% and 3.5% and 0% (8×)"}, {"measurement": "% Toxicity, Sample Replicate #", "setting": "[1]; Assay 2 control, Actinomycin D only (no TNFα)", "result": 0, "unit": "%"}]}
{"molecule": "COc1cccc2c1C(=O)c1c(O)c3c(c(O)c1C2=O)C[C@@](O)(C(=O)CO)C[C@@H]3O[C@H]1C[C@H](N)[C@H](O)[C@H](C)O1", "note": "[Doxorubicin, reference compound]", "values": [{"measurement": "Tumor measurement, individual animals", "setting": "[2]; day 8 post implant", "result": 0.00, "unit": "mm^3"}, {"measurement": "Tumor measurement, Mean Abs", "setting": "[2]; day 13 post implant", "result": 70.72, "unit": "mm^3"}, {"measurement": "Tumor measurement, individual animals", "setting": "[2]; day 23 post implant", "result": 116.85, "unit": "mm^3"}, {"measurement": "number of surviving at the end of the study", "setting": "[3]; Hsd: Athymic Nude-Fox1nu", "result": 2}, {"measurement": "Are the survival curves sig different?", "setting": "[3]", "result": "Yes"}]}
{"molecule": "TNFa", "values": [{"measurement": "% Toxicity, Sample Replicate #", "setting": "[1]; Assay 1 control, TNFa 0.5 μg/mL", "result": "101.9% and 101.6% and 101.8% (3×) and 102.1% (4×) and 102.6% and 102.7% and 101.7%"}]}
{"molecule": "CC(=O)c1cc2c(o1)C(=O)c1ccccc1C2=O", "note": "[BB1608, napabucasin, reference compound]", "values": [{"measurement": "effect on IL-6 induction of the reporter", "setting": "[4]", "result": "Inhibition of IL-6"}]}
{"molecule": "MPT His Tag: anti-STAT3 VHH13 (SBT-100) preparation produced by Microprotein Technologies, His tagged", "values": [{"measurement": "inhibition compared with the other SBT-100 preparations", "setting": "[5]", "result": "greatest inhibition"}]}
{"molecule": "Nc1ccn([C@@H]2O[C@H](CO)[C@@H](O)C2(F)F)c(=O)n1", "note": "[Gemcitabine]", "values": [{"measurement": "inhibition at 0.313 µM", "setting": "[6]; read-out: % Inh, Gemcitabine Hydrochloride (Biovision #1759) 0.313 μM, 72 hours", "result": 0, "unit": "%"}, {"measurement": "inhibition at 0.625 µM", "setting": "[6]; read-out: % Inh, Gemcitabine Hydrochloride (Biovision #1759) 0.625 μM, 72 hours", "result": 2, "unit": "%"}, {"measurement": "inhibition at 5 µM", "setting": "[6]; read-out: % Inh, Gemcitabine Hydrochloride (Biovision #1759) 5 μM, 72 hours", "result": 36, "unit": "%"}, {"measurement": "inhibition at 10 µM", "setting": "[6]; read-out: % Inh, Gemcitabine Hydrochloride (Biovision #1759) 10 μM, 72 hours", "result": 46, "unit": "%"}]}
{"molecule": "B1", "values": [{"measurement": "effect on IL-6 induction of the reporter", "setting": "[4]", "result": "enhancement of the IL-6 induction"}, {"measurement": "detection in coated vs non-coated wells", "setting": "[7]; 1 μg/mL sdAb", "result": "detected in coated wells but not in non-coated wells"}, {"measurement": "detection / binding to the TNF-α protein", "setting": "[7]; 1 μg/mL sdAb", "result": "little to no detection"}]}
{"molecule": "B2", "values": [{"measurement": "effect on IL-6 induction of the reporter", "setting": "[4]", "result": "enhancement of the IL-6 induction"}]}
{"molecule": "B3", "values": [{"measurement": "detection in coated vs non-coated wells", "setting": "[7]; 1 μg/mL sdAb", "result": "not detected in either coated or non-coated wells"}, {"measurement": "detection / binding to the TNF-α protein", "setting": "[7]; 1 μg/mL sdAb", "result": "little to no detection"}, {"measurement": "OD values", "setting": "[7]; Experiment 4, 10-fold serial dilutions, old and new batch", "result": "< 0.2", "unit": "OD450"}, {"measurement": "OD450 Values, Non-Coated", "setting": "[7]; non-coated wells (non-specific binding), 1 μg/mL sdAb", "result": "−0.001"}]}
